Measurements: patent publication US20240269238A1, “Therapeutic Regimens and Methods for Reducing Body Weight in a Subject with Fatty Liver Disease using a GLP-1R and GCGR Agonist” (Spitfire Pharma LLC, priority 2022, published 2024)

Experiments:
[1] = target: glucagon-like peptide 1 receptor (GLP-1R) (Homo sapiens, UniProt P43220); test: cellular assay, agonist activity at GLP-1R; assay type: cell-based
Text: This disclosure relates to a dual agonist peptide(s) as well as pharmaceutical dosage formulations comprising, and methods for using, the same. The dual agonist peptides have affinity for, and in preferred embodiments about equal affinity for, glucagon-like peptide 1 receptor (GLP-1R) and glucagon receptor (GCGR), as may be determined using a cellular assay. In some embodiments, this disclosure provides pharmaceutical dosage formulations configured to induce weight loss in a human being with fatty liver disease. In some embodiments, the human being may, or may not, suffer from type 2 diabetes. In some embodiments, the disclosure provides pharmaceutical dosage formulations configured to reduce pathogenic plasma lipid mediators. As used herein, “pathogenic” serum lipid mediators, included but are not limited to the following reactive lipid species: malondialdehyde (MDA), isolevuglandins (IsoLG), methyglyoxal (MGO), 4-oxononenal (ONE), and 4-hydroxynonenal (HNE). Oxidized phospholipids include 1-palmitoyl-2-oxovaleroyl-sn-glycero-3-phosphorylcholine (POVPC), 1-O-alkyl-2-azelaoyl-sn-glycero-3-phophorylcholine (azPAF), 1-(Palmitoyl)-2-(5-keto-6-octene-dioyl) phosphatidylcholine (KOdiA-PC), 1-palmitoyl-2-F2-isoprostane-sn-glycero-3-phosphocholine (F2IsoP-PC), and 1-palmitoyl-2-(5,6)-epoxyisoprostane E2-sn-glycero-3-phosphocholine (PEIPC). […]

[2] = Phase 1 12-week study in overweight/obese subjects (NCT0456124, Example 2): key pharmacodynamic endpoints; assay type: in vivo, human
Method: To test the lipid-lowering effects of pemvidutide, an analysis of Phase I clinical trial (NCT0456124) data was carried out. The subjects with overweight/obesity (BMI 25-40 kg/m^2) were randomized at 1 site in Australia (NCT0456124). Subjects were randomized 4:1 pemvidutide:placebo, with placebos pooled. […] Lipoprotein and glycoprotein profiling covering 33 lipoprotein related parameters was performed by ^1H-NMR on fasting plasma samples obtained at Day −1 (baseline), Day 43, and Day 84 from the 34 subjects who completed NCT0456124. Lipidomic profiling covering 600 lipid species was performed by ultra-high performance liquid chromatography-mass spectrometry on fasting plasma samples obtained at Day −1 (baseline), Day 43, and Day 84 from the 34 subjects who completed NCT0456124. For the lipid profiling, plasma fractionation was performed either using methanol to extract fatty acyls, bile acids, steroids, and lyso-glycerophospholipids, or using a chloroform/methanol mix to extract glycerolipids, cholesteryl esters, sphingolipids, and glycerophospholipids. Lipid classification followed the classification system proposed by Fahy et al. (J. Lipid Res. 2005; 46:839-861) and the LIPID MAPS initiative (http://www.lipidmaps.org) (see FIG. 8).

glucagon-like peptide 1 receptor (GLP-1R), sequence (P43220 24-463): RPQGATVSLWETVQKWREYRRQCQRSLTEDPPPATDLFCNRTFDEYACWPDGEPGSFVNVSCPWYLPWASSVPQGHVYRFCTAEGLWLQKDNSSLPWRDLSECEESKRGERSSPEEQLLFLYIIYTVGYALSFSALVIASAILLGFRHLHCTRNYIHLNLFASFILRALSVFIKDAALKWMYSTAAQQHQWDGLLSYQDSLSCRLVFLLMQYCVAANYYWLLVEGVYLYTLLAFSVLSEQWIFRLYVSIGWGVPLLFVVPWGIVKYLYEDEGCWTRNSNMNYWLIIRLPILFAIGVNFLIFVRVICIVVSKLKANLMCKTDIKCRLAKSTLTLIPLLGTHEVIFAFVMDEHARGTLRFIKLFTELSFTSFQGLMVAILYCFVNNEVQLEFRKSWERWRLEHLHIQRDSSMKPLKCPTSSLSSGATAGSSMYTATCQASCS

## CC[C@H](C)[C@H](NC(=O)[C@H](Cc1ccccc1)NC(=O)[C@H](CCC(=O)O)NC(=O)[C@@H]1CCCCNC(=O)CC[C@H](NC(=O)[C@H](CC(=O)O)NC(=O)[C@H](CC(C)C)NC(=O)[C@H](Cc2ccc(O)cc2)NC(=O)[C@H](CCCCN)NC(=O)[C@H](CO)NC(=O)[C@H](Cc2ccc(O)cc2)NC(=O)[C@H](CC(=O)O)NC(=O)[C@H](CO)NC(=O)[C@@H](NC(=O)[C@H](Cc2ccccc2)NC(=O)[C@@H](NC(=O)CNC(=O)[C@H](CCC(N)=O)NC(=O)C(C)(C)NC(=O)[C@@H](N)Cc2c[nH]cn2)[C@@H](C)O)[C@H](C)O)C(=O)N[C@@H](CCCCNC(=O)C2O[C@@H](OCCCCCCCCCCCCCCCCCC(=O)O)C(O)C(O)[C@@H]2O)C(=O)N[C@@H](C)C(=O)N[C@@H](C)C(=O)N1)C(=O)N[C@@H](CCC(N)=O)C(=O)N[C@@H](Cc1c[nH]c2ccccc12)C(=O)N[C@@H](CC(C)C)C(=O)N[C@@H](CC(C)C)C(=O)N[C@@H](CCC(N)=O)C(=O)N[C@H](C(N)=O)[C@@H](C)O (some centres unmarked) [ALT-801, Pemvidutide]
[1]
  EC50: ~0.04 nM
[2]; 1.2 mg weekly, 12 weeks
  Apoprotein B, change from baseline, mean: −45.4%
  BMI, change from baseline, mean: −4.8%
  Diastolic BP, change from baseline, mean: −4.7%
  HDL cholesterol, change from baseline, mean: −16.7%
  LDL cholesterol, change from baseline, mean: −18.4%
  Systolic BP, change from baseline, mean: −10.2%
  Total cholesterol, change from baseline, mean: −20.0%
  Triglycerides, change from baseline, mean: −37.0%
[2]; 1.2 mg weekly, 12 weeks (n = 7)
  Weight loss, change from baseline, mean: −4.9%
[2]; 1.8 mg dose level, 12 weeks
  mean body weight loss, placebo adjusted: 8.7%
[2]; 1.8 mg dose level, 12 weeks of weekly treatment
  mean body weight loss: 10.3%
[2]; 1.8 mg group, week 12
  subjects achieving at least 10% body weight loss: over half
  subjects losing at least 5% of body weight: all subjects lost at least 5% of their body weight
[2]; 1.8 mg weekly, 12 weeks
  Apoprotein B, change from baseline, mean: −23.4%
  BMI, change from baseline, mean: −10.4%
  Diastolic BP, change from baseline, mean: −7.1%
  HDL cholesterol, change from baseline, mean: −30.3%
  LDL cholesterol, change from baseline, mean: −25.6%
  Systolic BP, change from baseline, mean: −12.5%
  Total cholesterol, change from baseline, mean: −28.0%
  Triglycerides, change from baseline, mean: −37.9%
[2]; 1.8 mg weekly, 12 weeks (n = 9)
  Weight loss, change from baseline, mean: −10.3%
[2]; 2.4 mg weekly, 12 weeks
  Apoprotein B, change from baseline, mean: −16.8%
  BMI, change from baseline, mean: −7.0%
  Diastolic BP, change from baseline, mean: −6.0%
  HDL cholesterol, change from baseline, mean: −36.0%
  LDL cholesterol, change from baseline, mean: −23.9%
  Systolic BP, change from baseline, mean: −17.4%
  Total cholesterol, change from baseline, mean: −27.7%
  Triglycerides, change from baseline, mean: −29.2%
[2]; 2.4 mg weekly, 12 weeks (n = 11)
  Weight loss, change from baseline, mean: −9.0%
